Results reported in patent publication US20250049035A1, “MICROBIOCIDAL BICYCLE HETEROCYCLIC DERIVATIVES” (SYNGENTA CROP PROTECTION AG, priority 2021, published 2025).

Experiments:
[1] = system: Mycosphaerella arachidis (Cercospora arachidicola); assay: Mycosphaerella arachidis (Cercospora arachidicola) / liquid culture (early leaf spot); format: cell-based; settings: liquid culture (potato dextrose broth), growth inhibition photometrically 4-5 days after application, compared to untreated control
Description: (§1) Example B10: Mycosphaerella arachidis (Cercospora arachidicola)/Liquid Culture (Early Leaf Spot) Conidia of the fungus from cryogenic storage are directly mixed into a nutrient broth (potato dextrose broth) After placing a DMSO solution of test compound into a microtiter plate (96-well format), the nutrient broth containing the fungal spores is added. The test plates are incubated at 24° C. and the inhibition of growth is determined photometrically 4-5 days after application.

[2] = system: Phaeosphaeria nodorum (Septoria nodorum); assay: Phaeosphaeria nodorum (Septoria nodorum) / wheat / leaf disc preventative (glume blotch); format: in vivo; settings: Parastagonospora nodorum, foliar, wheat leaf segments cv. Kanzler, inoculated 2 days after application, assessed 5-7 days after application, compared to untreated control
Description: Example B8: Phaeosphaeria Nodorum (Septoria nodorum)/Wheat/Leaf Disc Preventative (Glume Blotch) Wheat leaf segments cv. Kanzler are placed on agar in a multiwell plate (24-well format) and sprayed with the formulated test compound diluted in water. The leaf disks are inoculated with a spore suspension of the fungus 2 days after application. The inoculated test leaf disks are incubated at 20° C. and 75% relative humidity under a light regime of 12 h light/12 h darkness in a climate cabinet and the activity of a compound is assessed as percent disease control compared to untreated when an appropriate level of disease damage appears in untreated check leaf disks (5-7 days after application).

[3] = system: Botryotinia fuckeliana (Botrytis cinerea); assay: Botryotinia fuckeliana (Botrytis cinerea) / liquid culture (gray mould); format: cell-based; settings: liquid culture (Vogels broth), growth inhibition photometrically 3-4 days after application, compared to untreated control
Description: as §1, with “B2: Botryotinia fuckeliana (Botrytis cinerea)/Liquid” for “B10: Mycosphaerella arachidis (Cercospora arachidicola)/Liquid”, “(Gray Mould)” for “(Early Leaf Spot)”, “(Vogels broth).” for “(potato dextrose broth)”, “3-4” for “4-5”

[4] = system: Monographella nivalis (Microdochium nivale); assay: Monographella nivalis (Microdochium nivale) / liquid culture (foot rot cereals); format: cell-based; settings: liquid culture (potato dextrose broth), growth inhibition photometrically 4-5 days after application, compared to untreated control
Description: as §1, with “B9: Monographella nivalis (Microdochium nivale)/Liquid” for “B10: Mycosphaerella arachidis (Cercospora arachidicola)/Liquid”, “(Foot Rot Cereals)” for “(Early Leaf Spot)”, “broth).” for “broth)”

Alternaria solani = Alternaria solani / tomato / leaf disc (early blight); format: in vivo; settings: foliar, tomato leaf disks cv. Baby, inoculated 2 days after application, assessed 5-7 days after application, compared to untreated control
Description: Example B1: Alternaria solani/Tomato/Leaf Disc (Early Blight) Tomato leaf disks cv. Baby are placed on agar in multiwell plates (24-well format) and sprayed with the formulated test compound diluted in water. The leaf disks are inoculated with a spore suspension of the fungus 2 days after application. The inoculated leaf disks are incubated at 23° C./21° C.

[5] = system: Glomerella lagenarium (Colletotrichum lagenarium); assay: Glomerella lagenarium (Colletotrichum lagenarium) / liquid culture (anthracnose); format: cell-based; settings: Colletotrichum orbiculare, liquid culture (potato dextrose broth), growth inhibition photometrically 3-4 days after application, compared to untreated control
Description: as §1, with “B3: Glomerella lagenarium (Colletotrichum lagenarium)/Liquid” for “B10: Mycosphaerella arachidis (Cercospora arachidicola)/Liquid”, “(Anthracnose)” for “(Early Leaf Spot)”, “broth).” for “broth)”, “measured” for “determined”, “3-4” for “4-5”

Fusarium culmorum = assay: microbe, parasite or virus in culture; format: cell-based; settings: read-out: control of Fusarium culmorum
Sclerotinia sclerotiorum = Sclerotinia sclerotiorum / liquid culture (cottony rot); format: cell-based; settings: liquid culture (potato dextrose broth), growth inhibition photometrically 3-4 days after application, compared to untreated control
Description: Example B14: Sclerotinia sclerotiorum/Liquid Culture (Cottony Rot) Mycelia fragments of a newly grown liquid culture of the fungus are directly mixed into a nutrient broth (potato dextrose broth). After placing a DMSO solution of test compound into a microtiter plate (96-well format) the nutrient broth containing the fungal material is added. The test plates are incubated at 24° C. and the inhibition of growth is determined photometrically 3-4 days after application.

[6] = system: Mycosphaerella graminicola (Septoria tritici); assay: Mycosphaerella graminicola (Septoria tritici) / liquid culture (Septoria blotch); format: cell-based; settings: Zymoseptoria tritici, liquid culture (potato dextrose broth), growth inhibition photometrically 4-5 days after application, compared to untreated control
Description: as §1, with “B15:” for “B10:”, “graminicola (Septoria tritici/Liquid” for “arachidis (Cercospora arachidicola)/Liquid”, “(Septoria Blotch)” for “(Early Leaf Spot)”, “broth).” for “broth)”

[7] = system: Blumeria graminis f. sp. tritici (Erysiphe graminis f. sp. tritici); assay: Blumeria graminis f. sp. tritici / wheat / leaf disc preventative (powdery mildew); format: in vivo; settings: foliar, wheat leaf segments cv. Kanzler, inoculated 1 day after application, assessed 6-8 days after application, compared to untreated control
Description: Example B4: Blumeria graminis f. sp. tritici (Erysiphe graminis f. sp. tritici)/Wheat/Leaf Disc Preventative (Powdery Mildew on Wheat) Wheat leaf segments cv. Kanzler are placed on agar in a multiwell plate (24-well format) and sprayed with the formulated test compound diluted in water. The leaf disks are inoculated by shaking powdery mildew infected plants above the test plates 1 day after application. The inoculated leaf disks are incubated at 20° C. and 60% relative humidity under a light regime of 24 h darkness followed by 12 h light/12 h darkness in a climate chamber and the activity of a compound is assessed as percent disease control compared to untreated when an appropriate level of disease damage appears on untreated check leaf segments (6-8 days after application).

Pyrenophora teres = Pyrenophora teres / barley / leaf disc preventative (net blotch); format: in vivo; settings: foliar, barley leaf segments cv. Hasso, inoculated 2 days after application, assessed 5-7 days after application, compared to untreated control
Description: Example B12: Pyrenophora teres/Barley/Leaf Disc Preventative (Net Blotch) Barley leaf segments cv. Hasso are placed on agar in a multiwell plate (24-well format) and sprayed with the formulated test compound diluted in water. The leaf segments are inoculated with a spore suspension of the fungus 2 days after application. The inoculated leaf segments are incubated at 20° C. and 65% relative humidity under a light regime of 12 h light/12 h darkness in a climate cabinet and the activity of a compound is assessed as disease control compared to untreated when an appropriate level of disease damage appears in untreated check leaf segments (5-7 days after application).

C[C@H]1c2sccc2[C@@](C)(c2cnn(C)c2)CN1C(=O)c1nnc(-c2ccc(F)cc2F)s1 (racemic) [Compound P-10, [5-(2,4-difluorophenyl)-1,3,4-thiadiazol-2-yl]-[rac-(4S,7R)-4,7-dimethyl-4-(1-methylpyrazol-4-yl)-5,7-dihydrothieno[2,3-c]pyridin-6-yl]methanone]
≥ 80%: inhibition of growth at 20 ppm [1] | pest or weed control at 200 ppm [2] | inhibition of growth at 20 ppm [3] | inhibition of growth at 20 ppm [4] | pest or weed control at 200 ppm (Alternaria solani) | inhibition of growth at 20 ppm [5] | inhibition of growth at 20 ppm (Fusarium culmorum) | inhibition of growth at 20 ppm (Sclerotinia sclerotiorum) | inhibition of growth at 20 ppm [6]

C[C@H]1c2sccc2[C@@](C)(c2cnn(C)c2)CN1C(=O)c1cc(-c2ccc(F)cc2F)on1 (racemic) [Compound P-12, [5-(2,4-difluorophenyl)isoxazol-3-yl]-[rac-(4S,7R)-4,7-dimethyl-4-(1-methylpyrazol-4-yl)-5,7-dihydrothieno[2,3-c]pyridin-6-yl]methanone]
≥ 80%: inhibition of growth at 20 ppm [1] | pest or weed control at 200 ppm [2] | inhibition of growth at 20 ppm [3] | inhibition of growth at 20 ppm [4] | pest or weed control at 200 ppm (Alternaria solani) | inhibition of growth at 20 ppm [5] | inhibition of growth at 20 ppm (Sclerotinia sclerotiorum) | inhibition of growth at 20 ppm [6]

Cc1c(C2CN(C(=O)c3nnc(-c4ccc(F)cc4F)s3)Cc3ccsc32)cnn1C (centres unmarked) [Compound P-7, [5-(2,4-difluorophenyl)-1,3,4-thiadiazol-2-yl]-[7-(1,5-dimethylpyrazol-4-yl)-6,7-dihydro-4H-thieno[3,2-c]pyridin-5-yl]methanone]
≥ 80%: inhibition of growth at 20 ppm [1] | pest or weed control at 200 ppm [7] | inhibition of growth at 20 ppm [3] | inhibition of growth at 20 ppm [4] | inhibition of growth at 20 ppm [5] | inhibition of growth at 20 ppm (Fusarium culmorum) | inhibition of growth at 20 ppm (Sclerotinia sclerotiorum) | inhibition of growth at 20 ppm [6]

Cc1c(C2CN(C(=O)c3cc(-c4ccc(F)cc4)on3)Cc3sccc32)cnn1C (centres unmarked) [Compound P-30, [4-(1,5-dimethylpyrazol-4-yl)-5,7-dihydro-4H-thieno[2,3-c]pyridin-6-yl]-[5-(4-fluorophenyl)isoxazol-3-yl]methanone]
≥ 80%: inhibition of growth at 20 ppm [1] | pest or weed control at 200 ppm [2] | inhibition of growth at 20 ppm [3] | inhibition of growth at 20 ppm [4] | pest or weed control at 200 ppm (Pyrenophora teres) | pest or weed control at 200 ppm (Alternaria solani) | inhibition of growth at 20 ppm [5] | inhibition of growth at 20 ppm (Sclerotinia sclerotiorum) | inhibition of growth at 20 ppm [6]

C[C@H]1c2sccc2[C@@H](c2cnn(C)c2)CN1C(=O)c1nnc(-c2ccc(F)cc2F)s1 (racemic) [Compound P-15, [5-(2,4-difluorophenyl)-1,3,4-thiadiazol-2-yl]-[rac-(4R,7S)-7-methyl-4-(1-methylpyrazol-4-yl)-5,7-dihydro-4H-thieno[2,3-c]pyridin-6-yl]methanone]
≥ 80%: inhibition of growth at 20 ppm [1] | pest or weed control at 200 ppm [2] | pest or weed control at 200 ppm [7] | inhibition of growth at 20 ppm [3] | pest or weed control at 200 ppm (Pyrenophora teres) | pest or weed control at 200 ppm (Alternaria solani) | inhibition of growth at 20 ppm [5] | inhibition of growth at 20 ppm (Fusarium culmorum) | inhibition of growth at 20 ppm [6]

Cn1cc(C2(C)CN(C(=O)c3cc(-c4ccc(F)cc4F)on3)Cc3sccc32)cn1 (centres unmarked) [Compound P-19, [5-(2,4-difluorophenyl)isoxazol-3-yl]-[4-methyl-4-(1-methylpyrazol-4-yl)-5,7-dihydrothieno[2,3-c]pyridin-6-yl]methanone]
≥ 80%: inhibition of growth at 20 ppm [1] | pest or weed control at 200 ppm [2] | pest or weed control at 200 ppm [7] | inhibition of growth at 20 ppm [3] | pest or weed control at 200 ppm (Pyrenophora teres) | pest or weed control at 200 ppm (Alternaria solani) | inhibition of growth at 20 ppm [5] | inhibition of growth at 20 ppm (Sclerotinia sclerotiorum) | inhibition of growth at 20 ppm [6]

Cc1c(C2CN(C(=O)c3cc(-c4ccc(F)cc4F)on3)Cc3nnsc32)cnn1C (centres unmarked) [Compound P-27, [5-(2,4-difluorophenyl)isoxazol-3-yl]-[7-(1,5-dimethylpyrazol-4-yl)-6,7-dihydro-4H-thiadiazolo[4,5-c]pyridin-5-yl]methanone]
≥ 80%: pest or weed control at 200 ppm [2] | pest or weed control at 200 ppm [7] | inhibition of growth at 20 ppm [4] | pest or weed control at 200 ppm (Pyrenophora teres) | pest or weed control at 200 ppm (Alternaria solani) | inhibition of growth at 20 ppm [5] | inhibition of growth at 20 ppm [6]

Cc1c(C2CN(C(=O)c3cc(-c4ccccc4F)on3)Cc3ccsc32)cnn1C (centres unmarked) [Compound P-34, [7-(1,5-dimethylpyrazol-4-yl)-6,7-dihydro-4H-thieno[3,2-c]pyridin-5-yl]-[5-(2-fluorophenyl)isoxazol-3-yl]methanone]
≥ 80%: inhibition of growth at 20 ppm [1] | pest or weed control at 200 ppm [2] | inhibition of growth at 20 ppm [3] | inhibition of growth at 20 ppm [4] | pest or weed control at 200 ppm (Pyrenophora teres) | pest or weed control at 200 ppm (Alternaria solani) | inhibition of growth at 20 ppm [5] | inhibition of growth at 20 ppm (Fusarium culmorum) | inhibition of growth at 20 ppm (Sclerotinia sclerotiorum) | inhibition of growth at 20 ppm [6]

Cc1c(C2CN(C(=O)c3cc(-c4ccccc4F)on3)Cc3ccsc32)cnn1C (centres unmarked) [Compound P-35, [7-(1,5-dimethylpyrazol-4-yl)-6,7-dihydro-4H-thieno[3,2-c]pyridin-5-yl]-[5-(2-fluorophenyl)isoxazol-3-yl]methanone]
≥ 80%: pest or weed control at 200 ppm [7]

Cn1cc(C2CN(C(=O)c3nnc(-c4ccc(F)cc4F)s3)Cc3sccc32)cn1 (centres unmarked) [Compound P-24, [5-(2,4-difluorophenyl)-1,3,4-thiadiazol-2-yl]-[4-(1-methylpyrazol-4-yl)-5,7-dihydro-4H-thieno[2,3-c]pyridin-6-yl]methanone]
≥ 80%: inhibition of growth at 20 ppm [1] | pest or weed control at 200 ppm [2] | inhibition of growth at 20 ppm [3] | inhibition of growth at 20 ppm [4] | pest or weed control at 200 ppm (Pyrenophora teres) | pest or weed control at 200 ppm (Alternaria solani) | inhibition of growth at 20 ppm [5] | inhibition of growth at 20 ppm (Fusarium culmorum) | inhibition of growth at 20 ppm (Sclerotinia sclerotiorum) | inhibition of growth at 20 ppm [6]
